Data reported in PubChem BioAssay (NCI).
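Values below derive from 48-hour exposures of cells grown in 96-well plates, with endpoints linearly interpolated between the two concentrations bracketing the appropriate inhibition level. TGI denotes the concentration required for complete inhibition of growth.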

Tests used:
Experiment in all cases: NCI-60 cell line screen, 48 h
MALME-3M melanoma = system: MALME-3M melanoma
LOX IMVI melanoma = system: LOX IMVI melanoma
SF-539 CNS = system: SF-539 CNS
SR leukemia = system: SR leukemia
NCI-H226 lung = system: NCI-H226 lung
SK-MEL-2 melanoma = system: SK-MEL-2 melanoma
SN12C renal = system: SN12C renal
A549 NSCLC = system: A549 NSCLC
HCT-116 colon = system: HCT-116 colon
MOLT-4 leukemia = system: MOLT-4 leukemia
M19-MEL melanoma = system: M19-MEL melanoma
U251 CNS = system: U251 CNS
CAKI-1 renal = system: CAKI-1 renal
SNB-19 CNS = system: SNB-19 CNS
NCI-H460 lung = system: NCI-H460 lung
OVCAR-8 ovarian = system: OVCAR-8 ovarian
DMS 273 small cell lung = system: DMS 273 small cell lung
OVCAR-3 ovarian = system: OVCAR-3 ovarian
SK-MEL-5 melanoma = system: SK-MEL-5 melanoma
LXFL 529 NSCLC = system: LXFL 529 NSCLC
SK-MEL-28 melanoma = system: SK-MEL-28 melanoma
UO-31 renal = system: UO-31 renal
KM20L2 colon = system: KM20L2 colon
K-562 leukemia = system: K-562 leukemia
786-0 renal = system: 786-0 renal
SF-268 CNS = system: SF-268 CNS
SW-620 colon = system: SW-620 colon
RPMI-8226 leukemia = system: RPMI-8226 leukemia
UACC-62 melanoma = system: UACC-62 melanoma
DMS 114 small cell lung = system: DMS 114 small cell lung
NCI-H23 lung = system: NCI-H23 lung
DLD-1 colon = system: DLD-1 colon
ACHN renal = system: ACHN renal
SNB-75 CNS = system: SNB-75 CNS
SNB-78 CNS = system: SNB-78 CNS
UACC-257 melanoma = system: UACC-257 melanoma
SF-295 CNS = system: SF-295 CNS
OVCAR-4 ovarian = system: OVCAR-4 ovarian
OVCAR-5 ovarian = system: OVCAR-5 ovarian
SK-OV-3 ovarian = system: SK-OV-3 ovarian
HOP-92 NSCLC = system: HOP-92 NSCLC
COLO 205 colon = system: COLO 205 colon
IGROV1 ovarian = system: IGROV1 ovarian
KM12 colon = system: KM12 colon
RXF 393 renal = system: RXF 393 renal
M14 melanoma = system: M14 melanoma
HT29 colon = system: HT29 colon
HOP-62 NSCLC = system: HOP-62 NSCLC
EKVX NSCLC = system: EKVX NSCLC
CCRF-CEM leukemia = system: CCRF-CEM leukemia
HL-60(TB) leukemia = system: HL-60(TB) leukemia
TK-10 renal = system: TK-10 renal
HCT-15 colon = system: HCT-15 colon
XF 498 CNS = system: XF 498 CNS
HOP-18 NSCLC = system: HOP-18 NSCLC
HCC-2998 colon = system: HCC-2998 colon
A498 renal = system: A498 renal
NCI-H522 lung = system: NCI-H522 lung

COc1ccc(/C=C2\CNC/C(=C\c3ccc(OC)cc3)C2=O)cc1
TGI (MALME-3M melanoma): > 100 µM | TGI (LOX IMVI melanoma): 21.1 µM | TGI (SF-539 CNS): 41.6 µM | TGI (SR leukemia): > 100 µM | TGI (NCI-H226 lung): > 100 µM | TGI (SK-MEL-2 melanoma): > 100 µM | TGI (SN12C renal): > 100 µM | TGI (A549 NSCLC): > 100 µM | TGI (HCT-116 colon): 13 µM | TGI (MOLT-4 leukemia): > 100 µM | TGI (M19-MEL melanoma): > 100 µM | TGI (U251 CNS): > 100 µM | TGI (CAKI-1 renal): 81.2 µM | TGI (SNB-19 CNS): > 100 µM | TGI (NCI-H460 lung): > 100 µM | TGI (OVCAR-8 ovarian): 35.2 µM | TGI (DMS 273 small cell lung): > 100 µM | TGI (OVCAR-3 ovarian): > 100 µM | TGI (SK-MEL-5 melanoma): > 100 µM | TGI (LXFL 529 NSCLC): > 100 µM | TGI (SK-MEL-28 melanoma): > 100 µM | TGI (UO-31 renal): > 100 µM | TGI (KM20L2 colon): 89.6 µM | TGI (K-562 leukemia): 65.2 µM | TGI (786-0 renal): > 100 µM | TGI (SF-268 CNS): 79.2 µM | TGI (SW-620 colon): > 100 µM | TGI (RPMI-8226 leukemia): > 100 µM | TGI (UACC-62 melanoma): > 100 µM | TGI (DMS 114 small cell lung): > 100 µM | TGI (NCI-H23 lung): 60.1 µM | TGI (DLD-1 colon): > 100 µM | TGI (ACHN renal): > 100 µM | TGI (SNB-75 CNS): > 100 µM | TGI (SNB-78 CNS): > 100 µM | TGI (UACC-257 melanoma): > 100 µM | TGI (SF-295 CNS): > 100 µM | TGI (OVCAR-4 ovarian): > 100 µM | TGI (OVCAR-5 ovarian): > 100 µM | TGI (SK-OV-3 ovarian): > 100 µM | TGI (HOP-92 NSCLC): > 100 µM | TGI (COLO 205 colon): > 100 µM | TGI (IGROV1 ovarian): > 100 µM | TGI (KM12 colon): > 100 µM | TGI (RXF 393 renal): 53.8 µM | TGI (M14 melanoma): > 100 µM | TGI (HT29 colon): > 100 µM | TGI (HOP-62 NSCLC): > 100 µM | TGI (EKVX NSCLC): > 100 µM | TGI (CCRF-CEM leukemia): 44.8 µM | TGI (HL-60(TB) leukemia): 38.5 µM | TGI (TK-10 renal): > 100 µM | TGI (HCT-15 colon): > 100 µM | TGI (XF 498 CNS): > 100 µM | TGI (HOP-18 NSCLC): > 100 µM | TGI (HCC-2998 colon): > 100 µM

COc1ccc2nc(NC(=O)C(=O)CC(=O)c3ccc(Cl)cc3)sc2c1
TGI (MALME-3M melanoma): > 100 µM | TGI (SF-539 CNS): 98.4 µM | TGI (SR leukemia): > 100 µM | TGI (NCI-H226 lung): > 100 µM | TGI (SK-MEL-2 melanoma): > 100 µM | TGI (SN12C renal): > 100 µM | TGI (A549 NSCLC): > 100 µM | TGI (HCT-116 colon): > 100 µM | TGI (MOLT-4 leukemia): > 100 µM | TGI (M19-MEL melanoma): > 100 µM | TGI (U251 CNS): > 100 µM | TGI (CAKI-1 renal): > 100 µM | TGI (SNB-19 CNS): > 100 µM | TGI (NCI-H460 lung): > 100 µM | TGI (OVCAR-8 ovarian): > 100 µM | TGI (DMS 273 small cell lung): > 100 µM | TGI (OVCAR-3 ovarian): > 100 µM | TGI (SK-MEL-5 melanoma): > 100 µM | TGI (LXFL 529 NSCLC): > 100 µM | TGI (SK-MEL-28 melanoma): > 100 µM | TGI (UO-31 renal): > 100 µM | TGI (KM20L2 colon): > 100 µM | TGI (786-0 renal): > 100 µM | TGI (SF-268 CNS): > 100 µM | TGI (A498 renal): > 100 µM | TGI (SW-620 colon): > 100 µM | TGI (UACC-62 melanoma): > 100 µM | TGI (DMS 114 small cell lung): > 100 µM | TGI (NCI-H23 lung): > 100 µM | TGI (DLD-1 colon): > 100 µM | TGI (ACHN renal): > 100 µM | TGI (SNB-75 CNS): 99.1 µM | TGI (SNB-78 CNS): > 100 µM | TGI (NCI-H522 lung): > 100 µM | TGI (UACC-257 melanoma): > 100 µM | TGI (SF-295 CNS): > 100 µM | TGI (OVCAR-4 ovarian): 53.2 µM | TGI (SK-OV-3 ovarian): > 100 µM | TGI (HOP-92 NSCLC): > 100 µM | TGI (COLO 205 colon): > 100 µM | TGI (IGROV1 ovarian): > 100 µM | TGI (KM12 colon): > 100 µM | TGI (RXF 393 renal): > 100 µM | TGI (M14 melanoma): > 100 µM | TGI (HT29 colon): > 100 µM | TGI (HOP-62 NSCLC): > 100 µM | TGI (EKVX NSCLC): > 100 µM | TGI (CCRF-CEM leukemia): > 100 µM | TGI (HL-60(TB) leukemia): > 100 µM | TGI (TK-10 renal): > 100 µM | TGI (HCT-15 colon): > 100 µM | TGI (XF 498 CNS): > 100 µM | TGI (HOP-18 NSCLC): > 100 µM | TGI (HCC-2998 colon): > 100 µM
